What was measured:
[1] = Average animal weight in MCF-7 mouse xenograft model; type: in vivo; details: nude mice with MCF-7 xenograft, i.p.; for Average Weight of Animals in Grams after Days 0: day 0; for Average Weight of Animals in Grams after Days 2: day 2; for Average Weight of Animals in Grams after Days 4: day 4; for Average Weight of Animals in Grams after Days 6: day 6; for Average Weight of Animals in Grams after Days 8: day 8; for Average Weight of Animals in Grams after Days 10: day 10; for Average Weight of Animals in Grams after Days 12: day 12; for Average Weight of Animals in Grams after Days 14: day 14; for Average Weight of Animals in Grams after Days 16: day 16; for Average Weight of Animals in Grams after Days 18: day 18; for Average Weight of Animals in Grams after Days 20: day 20; for Average Weight of Animals in Grams after Days 22: day 22
Excerpt: “In this work, MCF-7 mouse xenograft model was used. The animal protocol was approved by the Institutional Animal Use Ethics and Care Committee of the University of Alabama at Birmingham (50-01-05-08B). Female athymic pathogen-free nude mice (nu/nu, 4–6 weeks) were purchased from Frederick Cancer Research and Development Center (Frederick, MD, USA). To establish MCF-7 human breast cancer xenografts, each of the female nude mice was first implanted with a 60-day (subcutaneously, s.c.) slow release estrogen pellet (SE-121, 1.7 mg […]/pellet; Innovative Research of America, Sarasota, FL, USA). After 24 h, grown cells were harvested, washed twice with serum-free medium, resuspended, and injected subcutaneously (5 million cells/0.2 mL) into the left inguinal area of the mice. During the experiment, animals were checked periodically and the percentages of tumor growth, as well as animal weights, were recorded. Every 48 h, the size of the tumor was recorded by measuring two perpendicular diameters of the tumor and tumor volume was calculated according to Wang et al. [46]”.
“Treated animals and control groups (7–10 mice/group) received different compounds and vehicles, respectively. The tested compounds were dissolved in PEG400:ethanol:saline (57.1:14.3:28.6, v/v/v), and injected intraperitoneal (i.p.) at doses of […], 3 d/wk for 3 weeks. The higher dose (10 µM/kg/d, 3 d/wk) inhibited MCF-7 xenograft tumor growth”.

MCF-7 cells = experiment: MTT cytotoxic assay on MCF-7 cells; type: cell-based, Human; details: Homo sapiens, MCF7
Excerpt: “Human breast cancer cells (MCF-7) and normal non-tumorigenic MCF-10A cells were used throughout the work. Cells were obtained from ATCC, Gaithersburg, MD, USA. Standard MTT assay was used to explore the possible cytotoxic effects of the synthesized compounds [41, 42]. Medium composition, cultivation conditions and assay performance were exactly the same as our previous work. […] After MTT addition, the absorbance of the dissolved formazan crystals was read at 570 nm. The IC50 values were obtained with linear regression equations using Origin® 6.1 software (Origin Lab Corporation, Northampton, MA, USA)”.

Compound | Average Weight of Animals in Grams after Days 0 [1] [Grams] | Average Weight of Animals in Grams after Days 2 [1] [Grams] | Average Weight of Animals in Grams after Days 4 [1] [Grams] | Average Weight of Animals in Grams after Days 6 [1] [Grams] | Average Weight of Animals in Grams after Days 8 [1] [Grams] | Average Weight of Animals in Grams after Days 10 [1] [Grams] | Average Weight of Animals in Grams after Days 12 [1] [Grams] | Average Weight of Animals in Grams after Days 14 [1] [Grams] | Average Weight of Animals in Grams after Days 16 [1] [Grams] | Average Weight of Animals in Grams after Days 18 [1] [Grams] | Average Weight of Animals in Grams after Days 20 [1] [Grams] | Average Weight of Animals in Grams after Days 22 [1] [Grams] | melting point [°C] | IC50 (MCF-7 cells) [µM]
O=C(Cn1cnc2scc(-c3cccs3)c2c1=O)NN1C(=O)CSC1c1ccc(Cl)cc1 (stereo not shown) [Compound 9, N-(2-(4-Chlorophenyl)-4-oxothiazolidin-3-yl)-2-(4-oxo-5-(thiophen-2-yl)thieno[2,3-d]-pyrimidin-3(4H)-yl)-acetamide] | 24.1 | 24.1 | 24.0 | 24.0 | 24.0 | 24.0 | 23.7 | 23.7 | 23.6 | 23.6 | 23.6 | 23.6 | 175 to 177 | 2.37 ± 0.053
O=C(Cn1cnc2scc(-c3cccs3)c2c1=O)NN=Cc1ccc(Cl)cc1 [Compound 7, N′-(4-Chlorobenzylidene)-2-(4-oxo-5-(thiophen-2-yl)thieno[2,3-d]pyrimidin-3(4H)-yl)acetohydrazide] | 27.3 | 27.3 | 27.2 | 27.2 | 27.2 | 27.1 | 27.1 | 27.1 | 27.0 | 27.0 | 27.0 | 27.0 | 250 to 252 | 4.33 ± 0.076
COc1cccc(C=NNC(=O)Cn2cnc3scc(-c4cccs4)c3c2=O)c1OC [Compound 6, N′-(2,3-Dimethoxybenzylidene)-2-(4-oxo-5-(thiophen-2-yl)thieno[2,3-d]pyrimidin-3(4H)-yl)-acetohydrazide] | 23.7 | 23.7 | 23.6 | 23.6 | 23.5 | 23.5 | 23.5 | 23.4 | 23.4 | 23.5 | 23.5 | 23.5 | 248 to 250 | 4.52 ± 0.085
NNC(=O)Cn1cnc2scc(-c3cccs3)c2c1=O [Compound 4, 2-(4-oxo-5-(thiophen-2-yl)thieno[2,3-d]pyrimidin-3(4H)-yl)acetohydrazide] | 24.2 | 24.2 | 24.1 | 24.0 | 23.9 | 23.9 | 23.7 | 23.7 | 23.6 | 23.6 | 23.6 |  | 205 to 207 | 4.87 ± 0.098

Reference: PMC6631792, “In Vitro and In Vivo Anti-Breast Cancer Activities of Some Newly Synthesized 5-(thiophen-2-yl)thieno-[2,3-d]pyrimidin-4-one Candidates” (Molecules, 2019)
